Assay results taken from patent publication US20260097022A1, “COMPOUNDS AND USES THEREOF” (Integrated Biosciences, Inc., priority 2023, published 2026).

System: etoposide-treated IMR-90 cells
Assay: Etoposide-induced senescence model, resazurin cell viability (screen and dose-response)
Assay type: cell-based, human
Conditions: etoposide-induced senescence model; ratio of IC50 values between etoposide- and DMSO-treated IMR-90 fibroblasts
Procedure: Cell culture. Human lung fibroblast (IMR-90) cells were obtained from ATCC (CCL-186) and passaged less than 10 times (less than 30 population doublings) for all experiments described in this example, with the exception of high-passage cells used in the model of replicative senescence (see the section on Replicative senescence below). Cells were cultured in growth media comprising Eagle's Minimum Essential Medium (EMEM: ATCC 30-2003) supplemented with 10% fetal bovine serum (FBS: Thermo Fisher 16140071) and 1% penicillin-streptomycin (Thermo Fisher 15070063). Cells were incubated in a humidity-controlled incubator at 37° C., with 5% CO2. Cells were detached using trypsin-EDTA (0.05%; Gibco 25300120).
Etoposide-induced senescence. IMR-90 cells were cultured as described above. At between 30 to 50% confluence, the media was replaced with complete growth media containing vehicle (0.5% dimethyl sulfoxide: DMSO, MilliporeSigma D5879) or complete growth media containing 50 μM etoposide (prepared as a 1:200 dilution of a 10 mM stock solution in DMSO; etoposide, MilliporeSigma E1383). Cells were treated for 2 days, after which the media was replaced with fresh growth media and cells were allowed to recover for 4 days. Cells were then plated as described below.
Chemical screening. For all screening experiments. 99 μL of cells were plated into each well of a 96-well clear flat-bottom, black polystyrene tissue-culture-treated plate (Corning 3904) at a density of ˜10+ cells/well. Plates were incubated overnight for adhesion. The day after plating. 1 μL of each compound, prepared as either a 1 mM stock solution in DMSO (10 μM final concentration screen) or 0.1 mM stock solution in DMSO (1 μM final concentration screen), was added to each well using an Agilent Bravo liquid handler. A built-in slow mixing step involving aspirating and dispensing was used to enhance distribution of the added compounds in solution. Cells were incubated for 3 days, after which resazurin (MilliporeSigma R^7017) was added to each well to a final concentration of 0.15 mM. After an additional 1 day of incubation, the fluorescence excitation/emission at 550/590 nm was read using a SpectraMaxR M3 plate reader and manufacturer software (SoftMax Pro R 6). Experiments were performed in biological duplicate.
Three-fold serial dilutions of compound were prepared in DMSO, then added to cell plates (final concentration of DMSO. 1%). Cell viability was then assayed as detailed above, and resazurin fluorescence values were linearly interpolated with respect to values from empty and positive control (non-treatment) wells. Experiments were performed in biological duplicate each on two independent occasions. When possible, chemical stocks from commercial suppliers were used: econazole nitrate (Cayman Chemical 20223), artenimol (Cayman Chemical 19846), and ABT-263 (Cayman Chemical 11500) were from Cayman Chemical, and dehydrodeguelin was aliquoted from the screening library.
Calculation of cellular viability values in dose-response curves. […] For each sample, the fluorescence intensity value was normalized by the mean of two untreated control values. Cellular viability values are therefore indicated as fractions of the cellular viability of untreated controls. Vehicle (1% DMSO) control values are included in each dose-response curve. Experiments were performed in biological duplicate each on two independent occasions.
Calculation of baseline cellular viability values. […] Additionally, baseline cellular viability values were calculated for untreated cells at the start of the experiment. Resazurin was added to a final concentration of 0.15 mM on the day of seeding (corresponding to day 0 in FIG. 7).

Structure (SMILES)	Therapeutic Index (TI)
CC(=O)Nc1ccc(NC(=O)CSc2nc3ccc(NC(=O)c4ccccc4)cc3s2)cc1 [compound 135]	++ (compounds with a TI of 1 to 5 were labelled as ++)
COc1ccc(NC(=O)CSc2nc3ccc(NC(=O)c4ccc(Cl)cc4)cc3s2)cc1 [compound 111]	++ (compounds with a TI of 1 to 5 were labelled as ++)
COc1ccccc1C(=O)Nc1ccc2nc(SCC(=O)Nc3ccc(C)cc3C)sc2c1 [compound 168]	+ (Compounds with a TI of <1 were labelled as +)
CS(=O)(=O)c1cccc(C(=O)Nc2ccc3nc(SCC(=O)Nc4ccc(F)cc4)sc3c2)c1 [compound 174]	+++ (compounds with a TI of >5 were labeled as +++)
COc1ccc(NC(=O)CSc2nc3ccc(NC(=O)c4cccc(F)c4)cc3s2)cc1 [compound 48]	++ (compounds with a TI of 1 to 5 were labelled as ++)
COc1ccc(NC(=O)CSc2nc3ccc(NC(=O)c4ccc(C(C)(C)C)cc4)cc3s2)cc1 [compound 117]	++ (compounds with a TI of 1 to 5 were labelled as ++)
Cc1ccc(C(=O)Nc2ccc3nc(SCC(=O)Nc4ccc(C(C)C)cc4)sc3c2)cc1 [compound 24]	+++ (compounds with a TI of >5 were labeled as +++)
Cc1ccccc1C(=O)Nc1ccc2nc(SCC(=O)Nc3ccc(F)cc3)sc2c1 [compound 20]	+++ (compounds with a TI of >5 were labeled as +++)
O=C(CSc1nc2ccc(NC(=O)c3ccc(CO)c(F)c3)cc2s1)Nc1ccc(F)cc1 [compound 171]	+++ (compounds with a TI of >5 were labeled as +++)
COc1ccccc1C(=O)Nc1ccc2nc(SCC(=O)Nc3cc(Cl)ccc3C)sc2c1 [compound 160]	+ (Compounds with a TI of <1 were labelled as +)
CCc1cccc(CC)c1NC(=O)CSc1nc2ccc(NC(=O)c3ccccc3C)cc2s1 [compound 69]	++ (compounds with a TI of 1 to 5 were labelled as ++)
COc1ccccc1NC(=O)CSc1nc2ccc(NC(=O)c3ccccc3)cc2s1 [compound 167]	+ (Compounds with a TI of <1 were labelled as +)
Cc1ccc(C(=O)Nc2ccc3nc(SCC(=O)Nc4ccccc4F)sc3c2)cc1 [compound 56]	++ (compounds with a TI of 1 to 5 were labelled as ++)
CC(=O)c1ccc(NC(=O)CSc2nc3ccc(NC(=O)c4ccccc4Cl)cc3s2)cc1 [compound 17]	+++ (compounds with a TI of >5 were labeled as +++)
Cc1ccc(C(=O)Nc2ccc3nc(SCC(=O)N4CCc5ccccc54)sc3c2)cc1 [compound 18]	+++ (compounds with a TI of >5 were labeled as +++)
COc1ccc(NC(=O)CSc2nc3ccc(NC(=O)c4cccc(C)c4)cc3s2)cc1 [compound 55]	++ (compounds with a TI of 1 to 5 were labelled as ++)
CCOc1ccc(NC(=O)C(C)Sc2nc3ccc(NC(=O)c4ccccc4)cc3s2)cc1 (centres unmarked) [compound 38]	++ (compounds with a TI of 1 to 5 were labelled as ++)
Cc1ccccc1NC(=O)CSc1nc2ccc(NC(=O)c3ccccc3C)cc2s1 [compound 152]	+ (Compounds with a TI of <1 were labelled as +)
CC(=O)c1ccc(NC(=O)CSc2nc3ccc(NC(=O)c4ccccc4C)cc3s2)cc1 [compound 164]	+ (Compounds with a TI of <1 were labelled as +)
Cc1ccccc1C(=O)Nc1ccc2nc(SCC(=O)Nc3ccc([N+](=O)[O-])cc3)sc2c1 [compound 73]	++ (compounds with a TI of 1 to 5 were labelled as ++)
CC(C)(C)c1ccc(C(=O)Nc2ccc3nc(SCC(=O)Nc4ccccc4)sc3c2)cc1 [compound 98]	++ (compounds with a TI of 1 to 5 were labelled as ++)
Cc1cccc(C(=O)Nc2ccc3nc(SCC(=O)Nc4cc(Cl)ccc4C)sc3c2)c1 [compound 70]	++ (compounds with a TI of 1 to 5 were labelled as ++)
COc1ccccc1C(=O)Nc1ccc2nc(SCC(=O)Nc3ccccc3Cl)sc2c1 [compound 170]	+ (Compounds with a TI of <1 were labelled as +)
